Where “and” joins values, the source holds several entries; their conditions need not be identical. Equal values may be shown once.
Target: T1, full length AKT1 (Homo sapiens, UniProt P31749)
T1 construct: Full-length human AKT1 gene was amplified by PCR; His6 tag from the pFastBacHTb vector (own knowledge: N-terminal His6, spacer and TEV site; supported by the nickel purification) (N); made in house; host or cells: baculovirus-infected insect cells (virus produced in Sf9; T. ni cells infected; purification text says sf9 cells)
Experiment: Full-length AKT enzyme assay (substrate phosphorylation, SPA)
Format: biochemical
Conditions: in at least one experimental run; 10 nM activated AKT enzyme, 4 uM ATP; pIC50 = -log(IC50), IC50 in molar units; read-out: pIC50 value against full length AKT1 (converted)
Excerpt: Cloning of Full-Length Human (FL) AKT1:
Full-length human AKT1 gene was amplified by PCR from a plasmid containing myristylated-AKT1-ER (gift from Robert T. Abraham, Duke University under MTA, described in Klippel et al. in Molecular and Cellular Biology 1998 Volume 18 p. 5699) using the 5′ primer: SEQ. ID NO: 2 5′ […] 3′ and the 3′ primer: SEQ. ID NO: 3 […] 3′. The 5′ primer included a BamHI site and the 3′ primer included an XhoI site for cloning purposes. The resultant PCR product was subcloned in pcDNA3 as a BamHI/XhoI fragment. A mutation in the sequence (TGC) coding for a Cysteine^25 was converted to the wild-type AKT1 sequence (CGC) coding for an Arginine^25 by site-directed mutagenesis using the QuikChange® Site Directed Mutagenesis Kit (Stratagene). The AKT1 mutagenic primer: SEQ. ID NO: 4 5′ […] and selection primer: SEQ. […] For expression/purification purposes, AKT1 was isolated as a BamHI/XhoI fragment and cloned into the BamHI/XhoI sites of pFastbacHTb (Invitrogen).
Expression of FL Human AKT1:
Expression was done using the BAC-to-BAC Baculovirus Expression System from Invitrogen (catalog #10359-016). […]
Compounds of the present invention were tested for AKT 1, 2, and 3 protein serine kinase inhibitory activity in substrate phosphorylation assays. […] Substrate phosphorylation was detected by the following procedure. […]

T1 sequence (P31749 whole entry): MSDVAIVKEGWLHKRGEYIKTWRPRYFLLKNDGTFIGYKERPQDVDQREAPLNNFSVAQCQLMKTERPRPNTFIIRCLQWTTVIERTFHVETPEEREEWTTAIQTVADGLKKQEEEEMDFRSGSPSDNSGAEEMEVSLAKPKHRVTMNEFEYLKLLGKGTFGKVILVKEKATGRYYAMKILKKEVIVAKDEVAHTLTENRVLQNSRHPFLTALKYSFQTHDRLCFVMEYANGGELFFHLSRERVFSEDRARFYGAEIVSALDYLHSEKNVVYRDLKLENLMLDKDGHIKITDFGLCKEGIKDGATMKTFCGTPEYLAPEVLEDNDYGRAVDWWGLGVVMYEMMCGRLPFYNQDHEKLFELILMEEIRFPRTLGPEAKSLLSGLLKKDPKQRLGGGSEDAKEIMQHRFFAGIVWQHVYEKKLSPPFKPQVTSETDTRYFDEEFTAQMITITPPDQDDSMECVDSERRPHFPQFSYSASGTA

Cn1nccc1-c1csc(C(=O)NC(CN)Cc2ccccc2)n1 (centres unmarked) [Example 3, N-[2-amino-1-(phenylmethyl)ethyl]-4-(1-methyl-1H-pyrazol-5-yl)-1,3-thiazole-2-carboxamide]
IC50: ≤ 501 nM

Cn1nccc1-c1csc(C(=O)N[C@H](CN)Cc2cccc(F)c2)n1 [Example 1, N-{(1S)-2-amino-1-[(3-fluorophenyl)methyl]ethyl}-4-(1-methyl-1H-pyrazol-5-yl)-1,3-thiazole-2-carboxamide]
IC50: ≤ 501 nM and 501 nM
